Source: ChEMBL document CHEMBL3045862, “PRE-CLINICAL AND CLINICAL PHARMACOKINETICS OF THE DIASTEREOMERS OF ARTEETHER, A POTENT ANTIMALARIAL” (Med Chem Res, 2004)

Assays:
Assay type in all cases: ADME, organism-based
[1] = Clearance in Homo sapiens (human) at 150 mg; settings: in vivo
[2] = Volume of distribution in Homo sapiens (human) at 150 mg; settings: in vivo
[3] = Mean residence time in Homo sapiens (human) at 150 mg; settings: in vivo
[4] = Elimination half life in Homo sapiens (human) at 150 mg; settings: in vivo, read-out: beta t1/2 (converted)
[5] = AUC (0 to infinity) in Homo sapiens (human) at 150 mg; set-up: dose 150 mg, time infinity; settings: plasma
Homo sapiens = species on record: Homo sapiens; assay: Dose normalized AUC in Homo sapiens (human) at 150 mg; settings: in vivo
[6] = Cmax in Homo sapiens (human) at 150 mg; set-up: dose 150 mg; settings: in vivo
[7] = Volume of distribution in Macaca mulatta (Rhesus monkey) at 4 mg/kg, iv; set-up: dose 4 mg/kg, route intravenous; settings: in vivo
[8] = Mean residence time in Macaca mulatta (Rhesus monkey) at 4 mg/kg, iv; set-up: dose 4 mg/kg, route intravenous; settings: in vivo
Rhesus monkey [9] = assay: Dose normalized AUC in Macaca mulatta (Rhesus monkey) at 4 mg/kg, iv; set-up: dose 4 mg/kg, route intravenous; settings: in vivo
[10] = Elimination half life in Macaca mulatta (Rhesus monkey) at 4 mg/kg, iv; set-up: dose 4 mg/kg, route intravenous; settings: in vivo, read-out: beta t1/2 (converted)
Rhesus monkey [11] = assay: Volume of distribution in Macaca mulatta (Rhesus monkey) at 7.5 mg/kg, administered intramuscularly; set-up: dose 7.5 mg/kg, route intramuscular; settings: in vivo, im
[12] = Mean residence time in Macaca mulatta (Rhesus monkey) at 7.5 mg/kg, administered intramuscularly; set-up: dose 7.5 mg/kg, route intramuscular; settings: in vivo, im
[13] = Elimination half life in Macaca mulatta (Rhesus monkey) at 7.5 mg/kg, administered intramuscularly; set-up: dose 7.5 mg/kg, route intramuscular; settings: in vivo, im, read-out: beta t1/2 (converted)
Rhesus monkey [14] = assay: Dose normalized AUC in Macaca mulatta (Rhesus monkey) at 7.5 mg/kg, administered intramuscularly; set-up: dose 7.5 mg/kg, route intramuscular; settings: in vivo, im
[15] = Tmax in Macaca mulatta (Rhesus monkey) at 7.5 mg/kg, administered intramuscularly; set-up: dose 7.5 mg/kg, route intramuscular; settings: in vivo, im
[16] = Cmax in Macaca mulatta (Rhesus monkey) at 7.5 mg/kg, administered intramuscularly; set-up: dose 7.5 mg/kg, route intramuscular; settings: in vivo, im
[17] = Mean residence time in Macaca mulatta (Rhesus monkey) at 50 mg/kg, po; set-up: dose 50 mg/kg, route oral; settings: in vivo
[18] = Elimination half life in Macaca mulatta (Rhesus monkey) at 50 mg/kg, po; set-up: dose 50 mg/kg, route oral; settings: in vivo, read-out: beta t1/2 (converted)
[19] = Elimination half life in Rattus norvegicus Sprague-Dawley (rat) at 30 mg/kg, administered intramuscularly; set-up: dose 30 mg/kg, route intramuscular; settings: in vivo, im, read-out: beta t1/2 (converted)
Rattus norvegicus [20] = assay: Dose normalized AUC in Rattus norvegicus Sprague-Dawley (rat) at 30 mg/kg, administered intramuscularly; set-up: dose 30 mg/kg, route intramuscular; settings: in vivo, im
[21] = Tmax in Rattus norvegicus Sprague-Dawley (rat) at 30 mg/kg, administered intramuscularly; set-up: dose 30 mg/kg, route intramuscular; settings: in vivo, im
[22] = Cmax in Rattus norvegicus Sprague-Dawley (rat) at 30 mg/kg, administered intramuscularly; set-up: dose 30 mg/kg, route intramuscular; settings: in vivo, im
Rattus norvegicus [23] = assay: Volume of distribution in Rattus norvegicus Sprague-Dawley (rat) at 17.5 mg/kg, administered intramuscularly; set-up: dose 17.5 mg/kg, route intramuscular; settings: in vivo, im
[24] = Elimination half life in Rattus norvegicus Sprague-Dawley (rat) at 17.5 mg/kg, administered intramuscularly; set-up: dose 17.5 mg/kg, route intramuscular; settings: in vivo, im, read-out: beta t1/2 (converted)
Rattus norvegicus [25] = assay: Dose normalized AUC in Rattus norvegicus Sprague-Dawley (rat) at 17.5 mg/kg, administered intramuscularly; set-up: dose 17.5 mg/kg, route intramuscular; settings: in vivo, im
[26] = Tmax in Rattus norvegicus Sprague-Dawley (rat) at 17.5 mg/kg, administered intramuscularly; set-up: dose 17.5 mg/kg, route intramuscular; settings: in vivo, im
[27] = Cmax in Rattus norvegicus Sprague-Dawley (rat) at 17.5 mg/kg, administered intramuscularly; set-up: dose 17.5 mg/kg, route intramuscular; settings: in vivo, im
Rattus norvegicus [28] = assay: Volume of distribution in Rattus norvegicus Sprague-Dawley (rat) at 9 mg/kg, administered intramuscularly; set-up: dose 9 mg/kg, route intramuscular; settings: in vivo, im
[29] = Mean residence time in Rattus norvegicus Sprague-Dawley (rat) at 9 mg/kg, administered intramuscularly; set-up: dose 9 mg/kg, route intramuscular; settings: in vivo, im
[30] = Elimination half life in Rattus norvegicus Sprague-Dawley (rat) at 9 mg/kg, administered intramuscularly; set-up: dose 9 mg/kg, route intramuscular; settings: in vivo, im, read-out: beta t1/2 (converted)
Rattus norvegicus [31] = assay: Dose normalized AUC in Rattus norvegicus Sprague-Dawley (rat) at 9 mg/kg, administered intramuscularly; set-up: dose 9 mg/kg, route intramuscular; settings: in vivo, im
[32] = Tmax in Rattus norvegicus Sprague-Dawley (rat) at 9 mg/kg, administered intramuscularly; set-up: dose 9 mg/kg, route intramuscular; settings: in vivo, im
[33] = Cmax in Rattus norvegicus Sprague-Dawley (rat) at 9 mg/kg, administered intramuscularly; set-up: dose 9 mg/kg, route intramuscular; settings: in vivo, im
Rhesus monkey [34] = assay: Dose normalized AUC in Macaca mulatta (Rhesus monkey) at 50 mg/kg, po; set-up: dose 50 mg/kg, route oral; settings: in vivo
[35] = Tmax in Macaca mulatta (Rhesus monkey) at 50 mg/kg, po; set-up: dose 50 mg/kg, route oral; settings: in vivo
[36] = Cmax in Macaca mulatta (Rhesus monkey) at 50 mg/kg, po; set-up: dose 50 mg/kg, route oral; settings: in vivo
Rattus norvegicus [37] = assay: Volume of distribution in Rattus norvegicus Sprague-Dawley (rat) at 9 mg/kg, po; set-up: dose 9 mg/kg, route oral; settings: in vivo
[38] = Mean residence time in Rattus norvegicus Sprague-Dawley (rat) at 9 mg/kg, po; set-up: dose 9 mg/kg, route oral; settings: in vivo
Rattus norvegicus [39] = assay: Dose normalized AUC in Rattus norvegicus Sprague-Dawley (rat) at 9 mg/kg, po; set-up: dose 9 mg/kg, route oral; settings: in vivo
[40] = Tmax in Rattus norvegicus Sprague-Dawley (rat) at 9 mg/kg, po; set-up: dose 9 mg/kg, route oral; settings: in vivo
[41] = Cmax in Rattus norvegicus Sprague-Dawley (rat) at 9 mg/kg, po; set-up: dose 9 mg/kg, route oral; settings: in vivo
[42] = Volume of distribution in Rattus norvegicus Sprague-Dawley (rat) at 2 mg/kg, iv; set-up: dose 2 mg/kg, route intravenous; settings: in vivo
[43] = Mean residence time in Rattus norvegicus Sprague-Dawley (rat) at 2 mg/kg, iv; set-up: dose 2 mg/kg, route intravenous; settings: in vivo
[44] = Elimination half life in Rattus norvegicus Sprague-Dawley (rat) at 2 mg/kg, iv; set-up: dose 2 mg/kg, route intravenous; settings: in vivo, read-out: beta t1/2 (converted)
Rattus norvegicus [45] = assay: Dose normalized AUC in Rattus norvegicus Sprague-Dawley (rat) at 2 mg/kg, iv; set-up: dose 2 mg/kg, route intravenous; settings: in vivo
Rattus norvegicus [46] = assay: Volume of distribution in Rattus norvegicus Sprague-Dawley (rat) at 30 mg/kg, po; set-up: dose 30 mg/kg, route oral; settings: in vivo
[47] = Mean residence time in Rattus norvegicus Sprague-Dawley (rat) at 30 mg/kg, po; set-up: dose 30 mg/kg, route oral; settings: in vivo
Rattus norvegicus [48] = assay: Dose normalized AUC in Rattus norvegicus Sprague-Dawley (rat) at 30 mg/kg, po; set-up: dose 30 mg/kg, route oral; settings: in vivo
[49] = Tmax in Rattus norvegicus Sprague-Dawley (rat) at 30 mg/kg, po; set-up: dose 30 mg/kg, route oral; settings: in vivo
Rattus norvegicus [50] = assay: Volume of distribution in Rattus norvegicus Sprague-Dawley (rat) at 17.5 mg/kg, po; set-up: dose 17.5 mg/kg, route oral; settings: in vivo
[51] = Cmax in Rattus norvegicus Sprague-Dawley (rat) at 30 mg/kg, po; set-up: dose 30 mg/kg, route oral; settings: in vivo
[52] = Elimination half life in Rattus norvegicus Sprague-Dawley (rat) at 17.5 mg/kg, po; set-up: dose 17.5 mg/kg, route oral; settings: in vivo, read-out: beta t1/2 (converted)
[53] = Mean residence time in Rattus norvegicus Sprague-Dawley (rat) at 17.5 mg/kg, po; set-up: dose 17.5 mg/kg, route oral; settings: in vivo
Rattus norvegicus [54] = assay: Dose normalized AUC in Rattus norvegicus Sprague-Dawley (rat) at 17.5 mg/kg, po; set-up: dose 17.5 mg/kg, route oral; settings: in vivo
[55] = Tmax in Rattus norvegicus Sprague-Dawley (rat) at 17.5 mg/kg, po; set-up: dose 17.5 mg/kg, route oral; settings: in vivo
[56] = Cmax in Rattus norvegicus Sprague-Dawley (rat) at 17.5 mg/kg, po; set-up: dose 17.5 mg/kg, route oral; settings: in vivo
Rattus norvegicus [57] = assay: Volume of distribution in Rattus norvegicus Sprague-Dawley (rat) at 30 mg/kg, administered intramuscularly; set-up: dose 30 mg/kg, route intramuscular; settings: in vivo, im
[58] = Mean residence time in Rattus norvegicus Sprague-Dawley (rat) at 30 mg/kg, administered intramuscularly; set-up: dose 30 mg/kg, route intramuscular; settings: in vivo, im

CCO[C@@H]1O[C@@H]2O[C@]3(C)CC[C@H]4[C@H](C)CC[C@@H]([C@H]1C)[C@@]24OO3 [ALPHA-ARTEETHER]
clearance [1]: 10 mL/min/kg | Vd [2]: 12 L/kg | MRT [3]: 19.6 h | half-life [4]: 13.2 h | AUC(0-inf) [5]: 1300 ng·h/mL | AUC/dose (Homo sapiens): 1721.9 ng·h/mL | Cmax [6]: 60.7 ng/mL | Vd [7]: 4.1 L/kg | MRT [8]: 2 h | AUC/dose (Rhesus monkey [9]): 628.7 ng·h/mL | half-life [10]: 1.8 h | Vd (Rhesus monkey [11]): 36.8 L/kg | MRT [12]: 9.2 h | half-life [13]: 6.7 h | AUC/dose (Rhesus monkey [14]): 285.3 ng·h/mL | Tmax [15]: 1 h | Cmax [16]: 96.7 ng/mL | MRT [17]: 3.4 h | half-life [18]: 2.7 h | half-life [19]: 11.9 h | AUC/dose (Rattus norvegicus [20]): 66.8 ng·h/mL | Tmax [21]: 0.167 h | Cmax [22]: 93.3 ng/mL | Vd (Rattus norvegicus [23]): 129.3 L/kg | half-life [24]: 21.7 h | AUC/dose (Rattus norvegicus [25]): 237.5 ng·h/mL | Tmax [26]: 0.5 h | Cmax [27]: 184 ng/mL | Vd (Rattus norvegicus [28]): 76.8 L/kg | MRT [29]: 47.8 h | half-life [30]: 22 h | AUC/dose (Rattus norvegicus [31]): 392 ng·h/mL | Tmax [32]: 0.5 h | Cmax [33]: 52.3 ng/mL | AUC/dose (Rhesus monkey [34]): 0.4 ng·h/mL | Tmax [35]: 0.222 h | Cmax [36]: 3.9 ng/mL | Vd (Rattus norvegicus [37]): 122.2 L/kg | MRT [38]: 4.3 h | AUC/dose (Rattus norvegicus [39]): 27.3 ng·h/mL | Tmax [40]: 5 min | Cmax [41]: 33.4 ng/mL | Vd [42]: 3.6 L/kg | MRT [43]: 0.6 h | half-life [44]: 0.55 h | AUC/dose (Rattus norvegicus [45]): 219.5 ng·h/mL | Vd (Rattus norvegicus [46]): 176.5 L/kg | MRT [47]: 1.8 h | AUC/dose (Rattus norvegicus [48]): 12.4 ng·h/mL | Tmax [49]: 5 min | Vd (Rattus norvegicus [50]): 244.3 L/kg | Cmax [51]: 103 ng/mL | half-life [52]: 1.7 h | MRT [53]: 1.9 h | AUC/dose (Rattus norvegicus [54]): 9.7 ng·h/mL | Tmax [55]: 5 min | Cmax [56]: 37.6 ng/mL | Vd (Rattus norvegicus [57]): 253.3 L/kg | MRT [58]: 14.4 h
